In patent publication US20080124270A1, “Compounds Useful as Metal Chelators” (BRACCO IMAGING S.P.A., priority 2003, published 2008):

Tests used:
[1] = relaxivity r1 of the gadolinium complex; assay type: physicochemical; conditions: for r1: relaxivity of the compound when complexed with gadolinium
Source text: (§1) One measure of a complex of a paramagnetic metal and a chelation compound is its signal enhancing effect when used as a contrast agent for MRI. The effectiveness of a paramagnetic complex (e.g., a complex including Gd (III)) in decreasing the relaxation time (T1) of the vicinal water protons is an intrinsic property called relaxivity, r1, which is given by the following equation: […]

[2] = relaxivity r1 of the gadolinium complex in Sucrose 80; assay type: physicochemical; conditions: relaxivity of the compound when complexed with gadolinium
Source text: as §1

CC(N1CCN(CC(=O)O)CCN(CC(=O)O)CCN(CC(=O)O)CC1)P(=O)(O)O (stereo not shown) [EPDO3A (Na), 10-(1-phosphonoethyl)-1,4,7,10-tetrazacycododecane-1,4,7-triacetic acid]
r1 [1]: 4.1 mM⁻¹ s⁻¹
r1 in Sucrose 80 [2]: 64 mM⁻¹ s⁻¹

O=C(O)CN1CCN(CC(=O)O)CCN(CP(=O)(O)O)CCN(CC(=O)O)CC1 [MPDO3A (Na), 10-Phosphonomethyl-1,4,7,10-tetraazacyclododecane-1,4,7-triacetic acid]
r1 [1]: 4.1 mM⁻¹ s⁻¹
relaxivity compared to DOTA or DO3A ([1]; when it complexes gadolinium, result in words): surprisingly high relaxivity
r1 in Sucrose 80 [2]: 65 mM⁻¹ s⁻¹

O=C(O)CN1CCN(CC(=O)O)CCN(CC(=O)O)CCN(CC(=O)O)CC1 [DOTA, 1,4,7,10-tetraazacyclododecane-1,4,7,10-tetraacetic acid, reference compound]
r1 [1]: 3.5 mM⁻¹ s⁻¹
r1 in Sucrose 80 [2]: 35 mM⁻¹ s⁻¹
